The values below come from publication PMC9851200, “Multiparameter phenotypic screening for endogenous TFEB and TFE3 translocation identifies novel chemical series modulating lysosome function” (Autophagy, 2022).

Like-named read-outs stand apart in the source and are kept apart here.

One data set concerns endogenous TFEB. Kind of data set: TFEB nuclear translocation, immunocytochemistry high-content imaging. Format: cell-based.
A further data set has as its system endogenous TFE3. Kind of data set: TFE3 nuclear translocation, immunocytochemistry high-content imaging. Format: cell-based.
Data set [1] concerns SH-SY5Y cells.
From the text: The PKIS2 Library was supplied by The Structural Genomics Consortium at the University of North Carolina at Chapel Hill.
The test system of data set [2] is SH-SY5Y cells. Kind of data set: AK (adenylate kinase) release ToxiLight cytotoxicity assay. Further: reference of the scale not given here.
Data set [3] has as its system SH-SY5Y cells. Kind of data set: Nuclear count from microscopy images (cellular growth and toxicity). Further: reference of the scale not given here.
Where [4] appears, read: PKIS2 primary screening, DQ Red BSA intensity.
Setting [5] is: PKIS2 primary screening, DQ Red BSA spot count.
Wherever DQ Intensity is given: reference of the scale not given here.
Wherever DQ Spot is given: reference of the scale not given here.

For `O=c1cc(N2CCOCC2)nc2n(Cc3cccc(C(F)(F)F)c3)ccn12` [UNC10225024A], in the data set with endogenous TFEB (PKIS2 primary screening), the TFEB % is on record as 3.55%. Besides, the TFE3 % with endogenous TFE3 (PKIS2 primary screening) was 12.11%. For the same compound, in the data set with SH-SY5Y cells [1] (PKIS2 primary screening), the “DQ Intensity” value was 73.22 and the “DQ Spot” value worked out at 100.00. In addition, the AK in the data set on SH-SY5Y cells [2] (PKIS2 primary screening) was 84.29. The “Nuclear Count” value in the data set on SH-SY5Y cells [3] (PKIS2 primary screening) worked out at 98.56.

`COC(=O)c1cccc(NC(=O)NC2CCN(c3ccnc(Nc4cc(OC)c(OC)c(OC)c4)n3)C2)c1` (stereo not drawn) [GSK1379767] came in with a TFEB % in the data set with endogenous TFEB (PKIS2 primary screening) of 5.97%. In the data set with endogenous TFE3 (PKIS2 primary screening), this compound gave a TFE3 % of 6.50%. Moreover, the “DQ Intensity” value with SH-SY5Y cells [1] (setting [4]) is reported as 85.74. Further, the “DQ Spot” value in the data set with SH-SY5Y cells [1] (setting [5]) came to 95.59. This compound came in with an AK with SH-SY5Y cells [2] (PKIS2 primary screening) of 115.43. Besides, the “Nuclear Count” value in the data set with SH-SY5Y cells [3] (PKIS2 primary screening) stood at 122.32.

As to `CN(C)c1ncnc2nc[nH]c12` [UNC10243858A], in the data set on endogenous TFEB (PKIS2 primary screening), the TFEB % stood at 5.99%. The TFE3 % in the data set with endogenous TFE3 (PKIS2 primary screening) is recorded as 16.40%. Besides, in the data set on SH-SY5Y cells [1] (PKIS2 primary screening), the “DQ Intensity” value turned out to be 152.14 and the “DQ Spot” value was found to be 119.94. In the data set with SH-SY5Y cells [2] (PKIS2 primary screening), this compound came in with an AK of 79.19. Moreover, in the data set with SH-SY5Y cells [3] (PKIS2 primary screening), the “Nuclear Count” value is on record as 91.65.

`COC(=O)Nc1nc2ccc(Oc3ccc(NC(=O)Nc4cc(C(F)(F)F)ccc4Cl)cc3)cc2[nH]1` [GW697465] came in with a TFEB % with endogenous TFEB (PKIS2 primary screening) of 5.88%. This compound showed a TFE3 % in the data set on endogenous TFE3 (PKIS2 primary screening) of 30.84%. The “DQ Intensity” value with SH-SY5Y cells [1] (setting [4]) is 71.39. In addition, the “DQ Spot” value in the data set on SH-SY5Y cells [1] (setting [5]) is 100.12. Besides, the AK in the data set on SH-SY5Y cells [2] (PKIS2 primary screening) is listed as 89.89. In addition, the “Nuclear Count” value in the data set on SH-SY5Y cells [3] (PKIS2 primary screening) is on record as 70.87.

In the case of `C[C@H]1CC[C@@H](C(=O)Nc2ccccc2)CN1c1cc(-c2ccc3c(N)n[nH]c3c2)nc(N)n1` [GSK2283293], in the data set with endogenous TFEB (PKIS2 primary screening), the TFEB % came to 5.47%. In the data set with endogenous TFE3 (PKIS2 primary screening), this compound displayed a TFE3 % of 11.00%. The “DQ Intensity” value in the data set on SH-SY5Y cells [1] (setting [4]) is on record as 68.06. Further, in the data set on SH-SY5Y cells [1] (setting [5]), the “DQ Spot” value came to 92.27. Also, the AK in the data set on SH-SY5Y cells [2] (PKIS2 primary screening) came out at 101.77. The “Nuclear Count” value in the data set with SH-SY5Y cells [3] (PKIS2 primary screening) was 95.91.

On to `CC(C)(C)OC(=O)NC1CCCN(c2cc(-c3ccc4c(N)n[nH]c4c3)nc(N)n2)C1` (stereo not drawn) [GSK2286096], for which the TFEB % in the data set with endogenous TFEB (PKIS2 primary screening) is recorded as 2.89%. The same compound returned a TFE3 % in the data set with endogenous TFE3 (PKIS2 primary screening) of 7.82%. In the data set with SH-SY5Y cells [1] (setting [4]), the “DQ Intensity” value is on record as 137.35. Besides, in the data set on SH-SY5Y cells [1] (setting [5]), the “DQ Spot” value stood at 108.17. For the same compound, in the data set with SH-SY5Y cells [2] (PKIS2 primary screening), the AK worked out at 116.95. Further, the “Nuclear Count” value in the data set on SH-SY5Y cells [3] (PKIS2 primary screening) stood at 128.62.

In the data set on endogenous TFEB (PKIS2 primary screening), `COc1ccc(NC(=O)c2ccc(-c3cc(-c4nnc(C)o4)ccc3C)cc2)cc1` [UNC10225475A] showed a TFEB % of 3.99%. Besides, the TFE3 % with endogenous TFE3 (PKIS2 primary screening) is 13.72%. Also, in the data set with SH-SY5Y cells [1] (PKIS2 primary screening), the “DQ Intensity” value is 95.33 and the “DQ Spot” value is given as 98.26. In the data set on SH-SY5Y cells [2] (PKIS2 primary screening), this compound registered an AK of 97.70. Besides, the “Nuclear Count” value in the data set with SH-SY5Y cells [3] (PKIS2 primary screening) is given as 99.11.

`COc1cc2c(Nc3ccc(NC(=O)c4ccccc4)cc3)ncnc2cc1OCCCN1CCOCC1` [UNC10225250A] yielded a TFEB % with endogenous TFEB (PKIS2 primary screening) of 4.27%. In the data set on endogenous TFE3 (PKIS2 primary screening), the TFE3 % was 6.21%. Also, in the data set with SH-SY5Y cells [1], the “DQ Intensity” value is reported as 81.48 and the “DQ Spot” value was 82.98. Further, the AK in the data set on SH-SY5Y cells [2] (PKIS2 primary screening) is listed as 83.23. For the same compound, the “Nuclear Count” value in the data set on SH-SY5Y cells [3] (PKIS2 primary screening) is reported as 140.08.

`CN(c1ccc(NC(=O)Nc2cc(C(F)(F)F)ccc2F)cc1)c1ccnc(Nc2ccc(S(N)(=O)=O)cc2)n1` [GW809893]: in the data set on endogenous TFEB (PKIS2 primary screening), the TFEB % worked out at 22.40%. In the data set with endogenous TFE3 (PKIS2 primary screening), this compound gave a TFE3 % of 18.55%. Further, the “DQ Intensity” value with SH-SY5Y cells [1] (setting [4]) is on record as 76.59. In addition, the “DQ Spot” value in the data set on SH-SY5Y cells [1] (setting [5]) stood at 83.26. Also, the AK with SH-SY5Y cells [2] (PKIS2 primary screening) was determined as 111.00. The “Nuclear Count” value in the data set on SH-SY5Y cells [3] (PKIS2 primary screening) was 46.13.

In the data set with endogenous TFEB (PKIS2 primary screening), `CCS(=O)(=O)c1ccc(OC)c(Nc2ncc(-c3ccc(F)cc3)o2)c1` [GW591947] came in with a TFEB % of 4.85%. The compound also registered a TFE3 % with endogenous TFE3 (PKIS2 primary screening) of 8.80%. Also, the “DQ Intensity” value in the data set with SH-SY5Y cells [1] (setting [4]) is 82.17. Moreover, the “DQ Spot” value with SH-SY5Y cells [1] (setting [5]) is given as 99.73. In the data set on SH-SY5Y cells [2] (PKIS2 primary screening), this compound came in with an AK of 64.95. Further, the “Nuclear Count” value with SH-SY5Y cells [3] (PKIS2 primary screening) came to 114.66.

Consider `CCn1c(-c2nonc2N)nc2cncc(CNC3CCNCC3)c21.Cl` [UNC10225211A], for which the TFEB % with endogenous TFEB (PKIS2 primary screening) was determined as 4.17%. Moreover, in the data set on endogenous TFE3 (PKIS2 primary screening), the TFE3 % was determined as 12.65%. In the data set with SH-SY5Y cells [1] (PKIS2 primary screening), the “DQ Intensity” value is 95.76 and the “DQ Spot” value was found to be 101.16. Moreover, in the data set on SH-SY5Y cells [2] (PKIS2 primary screening), the AK came to 88.65. Also, in the data set on SH-SY5Y cells [3] (PKIS2 primary screening), the “Nuclear Count” value amounted to 84.35.

In turn, `Cc1ccc(NC(=O)Nc2ccc(Cl)c(C(F)(F)F)c2)cc1-c1ccc(C(=O)Nc2ccncc2)cc1` [UNC10225359A] displayed a TFEB % in the data set with endogenous TFEB (PKIS2 primary screening) of 9.28%. Also, in the data set with endogenous TFE3 (PKIS2 primary screening), the TFE3 % stood at 18.34%. Also, in the data set with SH-SY5Y cells [1] (PKIS2 primary screening), the “DQ Intensity” value is reported as 70.67 and the “DQ Spot” value came out at 82.92. This compound also registered an AK in the data set on SH-SY5Y cells [2] (PKIS2 primary screening) of 88.88. Also, the “Nuclear Count” value in the data set on SH-SY5Y cells [3] (PKIS2 primary screening) amounted to 100.74.

In turn, `Cc1ccc(C)c(NC(=O)NCCNc2ccnc(Nc3ccc(F)cc3)n2)c1` [GSK1379878] had a TFEB % with endogenous TFEB (PKIS2 primary screening) of 8.11%. This compound gave a TFE3 % in the data set on endogenous TFE3 (PKIS2 primary screening) of 7.01%. In addition, the “DQ Intensity” value in the data set on SH-SY5Y cells [1] (setting [4]) is 136.83. Moreover, the “DQ Spot” value in the data set with SH-SY5Y cells [1] (setting [5]) was determined as 104.85. The compound also had an AK in the data set with SH-SY5Y cells [2] (PKIS2 primary screening) of 103.06. Further, the “Nuclear Count” value in the data set on SH-SY5Y cells [3] (PKIS2 primary screening) is reported as 85.48.

In turn, `Cc1c(Cn2c(C)nn3c(=O)cc(N4CCOC(C)C4)nc23)cccc1C(F)(F)F` (stereo not drawn) [UNC10225005A] had a TFEB % in the data set on endogenous TFEB (PKIS2 primary screen) of 4.71%. The compound further displayed a TFE3 % with endogenous TFE3 (PKIS2 primary screen) of 10.85%. The “DQ Intensity” value with SH-SY5Y cells [1] (PKIS2 primary screen, DQ Red BSA intensity) came to 85.13. In the data set with SH-SY5Y cells [1] (PKIS2 primary screen, DQ Red BSA spot count), the “DQ Spot” value amounted to 83.90. The AK in the data set on SH-SY5Y cells [2] (PKIS2 primary screen) is on record as 90.28. The “Nuclear Count” value in the data set with SH-SY5Y cells [3] (PKIS2 primary screen) worked out at 125.80.
